Test results reported in patent publication EP4467141A1, “PYRAZOLO-QUINOLINES AS SELECTIVE INHIBITORS OF GENOTOXIC STRESS-INDUCED IKK/NF- KB PATHWAYS FOR CANCER THERAPY” (Max-Delbrück-Centrum für Molekulare Medizin in der …, priority 2023, dated 2024).

Legend:
Experiment in all cases: Kinase panel study
Assay type in all cases: biochemical
Settings in all cases: read-out: Percentage of inhibition; for inhibition at 1 µM: 1000nM; for inhibition at 10 µM: 10000nM
[1] = molecular target: T1, JAK2 JH1 JH2 V617F (Homo sapiens, UniProt O60674, V617F)
T1 construct: JAK2 JH1 JH2 V617F; purchased Thermo Fisher Scientific
T1 sequence (O60674 532-1132 V617F limits assumed): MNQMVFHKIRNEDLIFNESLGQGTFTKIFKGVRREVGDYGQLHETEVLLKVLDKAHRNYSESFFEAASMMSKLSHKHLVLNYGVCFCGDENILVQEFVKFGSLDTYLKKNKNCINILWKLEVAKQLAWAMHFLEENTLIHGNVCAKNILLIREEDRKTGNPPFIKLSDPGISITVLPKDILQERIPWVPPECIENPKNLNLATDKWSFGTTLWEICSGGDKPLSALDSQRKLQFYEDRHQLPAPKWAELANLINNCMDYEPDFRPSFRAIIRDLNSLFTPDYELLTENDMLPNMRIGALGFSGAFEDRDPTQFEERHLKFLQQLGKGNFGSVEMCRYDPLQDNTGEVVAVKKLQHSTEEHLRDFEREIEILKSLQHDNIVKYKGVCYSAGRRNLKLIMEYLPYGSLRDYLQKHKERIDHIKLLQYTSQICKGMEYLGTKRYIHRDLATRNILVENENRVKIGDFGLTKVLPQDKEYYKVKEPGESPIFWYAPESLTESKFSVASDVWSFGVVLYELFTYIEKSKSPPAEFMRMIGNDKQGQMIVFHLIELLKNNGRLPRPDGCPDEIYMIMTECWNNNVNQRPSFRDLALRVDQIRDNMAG
How it was run: (§1)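 Inhibition was measured in an outsourced in vitro kinase panel using the ZLyte or Adapta format under the provider's standard procedures. Values are percent inhibition at 10 µM or 1 µM compound, and IC50s were also obtained.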

[2] = molecular target: T2, ADRBK2 (GRK3) (Homo sapiens, UniProt P35626)
T2 construct: purchased Thermo Fisher Scientific
T2 sequence (P35626 1-688): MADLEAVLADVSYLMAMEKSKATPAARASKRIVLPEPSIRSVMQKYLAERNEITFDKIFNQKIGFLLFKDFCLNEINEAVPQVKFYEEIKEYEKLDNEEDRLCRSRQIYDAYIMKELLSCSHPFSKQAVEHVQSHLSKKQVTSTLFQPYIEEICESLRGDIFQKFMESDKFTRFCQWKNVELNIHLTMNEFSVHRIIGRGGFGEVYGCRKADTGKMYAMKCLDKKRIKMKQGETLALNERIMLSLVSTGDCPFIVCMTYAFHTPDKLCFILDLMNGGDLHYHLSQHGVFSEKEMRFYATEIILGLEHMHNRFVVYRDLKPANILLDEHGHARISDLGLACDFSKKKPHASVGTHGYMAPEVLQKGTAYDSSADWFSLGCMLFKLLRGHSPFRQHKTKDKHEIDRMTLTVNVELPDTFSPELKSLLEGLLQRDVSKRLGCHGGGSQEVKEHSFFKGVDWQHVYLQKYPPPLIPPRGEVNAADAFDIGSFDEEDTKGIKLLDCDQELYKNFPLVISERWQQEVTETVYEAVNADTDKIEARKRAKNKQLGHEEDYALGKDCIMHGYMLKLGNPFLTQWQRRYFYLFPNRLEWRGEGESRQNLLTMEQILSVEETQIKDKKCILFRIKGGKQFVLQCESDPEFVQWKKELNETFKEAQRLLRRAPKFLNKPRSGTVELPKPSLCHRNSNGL
How it was run: as §1

[3] = molecular target: T3, LRRK2 R1441C (Homo sapiens, UniProt Q5S007, R1441C)
T3 construct: purchased Thermo Fisher Scientific
T3 sequence (Q5S007 970-2527 R1441C limits assumed): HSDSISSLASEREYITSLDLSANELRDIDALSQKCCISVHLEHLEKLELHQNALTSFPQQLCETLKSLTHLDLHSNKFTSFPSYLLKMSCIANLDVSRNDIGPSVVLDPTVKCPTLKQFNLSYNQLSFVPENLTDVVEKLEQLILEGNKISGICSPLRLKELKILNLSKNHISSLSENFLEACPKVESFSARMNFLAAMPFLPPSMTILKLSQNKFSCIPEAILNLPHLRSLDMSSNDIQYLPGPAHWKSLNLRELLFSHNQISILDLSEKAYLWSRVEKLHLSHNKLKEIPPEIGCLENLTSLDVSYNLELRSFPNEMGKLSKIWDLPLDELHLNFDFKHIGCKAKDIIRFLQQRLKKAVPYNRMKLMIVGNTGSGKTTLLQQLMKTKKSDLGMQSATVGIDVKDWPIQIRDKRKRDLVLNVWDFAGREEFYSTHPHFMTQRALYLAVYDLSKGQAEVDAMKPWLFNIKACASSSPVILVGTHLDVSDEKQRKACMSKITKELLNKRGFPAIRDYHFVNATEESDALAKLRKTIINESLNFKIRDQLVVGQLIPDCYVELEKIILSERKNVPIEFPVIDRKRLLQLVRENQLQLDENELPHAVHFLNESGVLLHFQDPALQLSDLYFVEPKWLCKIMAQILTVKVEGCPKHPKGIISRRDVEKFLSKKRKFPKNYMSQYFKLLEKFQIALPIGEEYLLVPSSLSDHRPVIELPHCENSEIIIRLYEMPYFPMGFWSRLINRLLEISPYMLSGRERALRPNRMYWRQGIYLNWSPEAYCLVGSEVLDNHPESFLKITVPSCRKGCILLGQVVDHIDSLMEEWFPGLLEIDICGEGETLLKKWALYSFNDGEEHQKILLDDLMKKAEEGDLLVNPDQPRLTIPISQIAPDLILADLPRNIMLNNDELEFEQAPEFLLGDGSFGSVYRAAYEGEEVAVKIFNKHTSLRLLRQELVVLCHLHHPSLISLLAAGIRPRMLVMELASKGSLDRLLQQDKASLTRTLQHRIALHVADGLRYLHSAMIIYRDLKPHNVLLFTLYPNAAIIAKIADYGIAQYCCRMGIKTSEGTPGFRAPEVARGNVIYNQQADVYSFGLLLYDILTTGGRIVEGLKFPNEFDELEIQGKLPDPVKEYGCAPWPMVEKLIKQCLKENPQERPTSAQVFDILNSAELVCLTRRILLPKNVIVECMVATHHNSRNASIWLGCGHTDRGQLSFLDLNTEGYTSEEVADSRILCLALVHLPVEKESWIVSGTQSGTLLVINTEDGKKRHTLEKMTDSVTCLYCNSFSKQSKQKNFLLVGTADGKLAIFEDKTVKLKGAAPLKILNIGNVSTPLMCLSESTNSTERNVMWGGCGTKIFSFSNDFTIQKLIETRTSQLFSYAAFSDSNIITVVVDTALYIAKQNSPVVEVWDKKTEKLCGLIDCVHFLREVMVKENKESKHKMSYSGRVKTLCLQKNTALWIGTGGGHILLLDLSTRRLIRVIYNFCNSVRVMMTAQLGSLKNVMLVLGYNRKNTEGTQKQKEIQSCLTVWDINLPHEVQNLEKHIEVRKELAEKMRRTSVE
How it was run: as §1

[4] = molecular target: T4, FGFR3 K650E (Homo sapiens, UniProt P22607, K650E)
T4 construct: purchased Thermo Fisher Scientific
T4 sequence (P22607 23-806 K650E): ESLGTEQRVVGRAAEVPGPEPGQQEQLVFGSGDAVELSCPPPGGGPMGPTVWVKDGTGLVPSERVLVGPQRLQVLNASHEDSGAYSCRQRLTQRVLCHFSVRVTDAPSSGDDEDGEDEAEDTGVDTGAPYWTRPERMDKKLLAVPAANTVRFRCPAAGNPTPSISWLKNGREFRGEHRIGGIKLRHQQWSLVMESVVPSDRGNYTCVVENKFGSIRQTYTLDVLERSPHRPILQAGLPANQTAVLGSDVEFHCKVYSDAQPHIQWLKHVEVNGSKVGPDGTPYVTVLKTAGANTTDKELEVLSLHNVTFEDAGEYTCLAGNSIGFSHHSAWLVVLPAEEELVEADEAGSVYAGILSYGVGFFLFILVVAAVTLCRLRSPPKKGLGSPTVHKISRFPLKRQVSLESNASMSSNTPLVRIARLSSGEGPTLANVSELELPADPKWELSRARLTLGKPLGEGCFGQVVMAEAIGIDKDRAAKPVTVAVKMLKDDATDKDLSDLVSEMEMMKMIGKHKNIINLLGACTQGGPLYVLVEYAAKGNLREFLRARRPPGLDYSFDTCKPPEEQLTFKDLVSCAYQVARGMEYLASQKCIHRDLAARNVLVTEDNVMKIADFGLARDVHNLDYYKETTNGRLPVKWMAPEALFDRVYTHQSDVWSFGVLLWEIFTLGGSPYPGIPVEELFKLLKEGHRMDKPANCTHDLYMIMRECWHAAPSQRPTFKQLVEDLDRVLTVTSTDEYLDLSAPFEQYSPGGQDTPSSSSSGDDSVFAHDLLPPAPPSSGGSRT
How it was run: as §1

[5] = molecular target: T5, FGFR3 V555M (Homo sapiens, UniProt P22607, V555M)
T5 construct: purchased Thermo Fisher Scientific
T5 sequence (P22607 23-806 V555M): as the sequence (P22607 23-806 K650E) above, with V533M, E628K counted along it
How it was run: as §1

[6] = molecular target: T6, RET V804E (Homo sapiens, UniProt P07949, V804E)
T6 construct: purchased Thermo Fisher Scientific
T6 sequence (P07949 29-1114 V804E): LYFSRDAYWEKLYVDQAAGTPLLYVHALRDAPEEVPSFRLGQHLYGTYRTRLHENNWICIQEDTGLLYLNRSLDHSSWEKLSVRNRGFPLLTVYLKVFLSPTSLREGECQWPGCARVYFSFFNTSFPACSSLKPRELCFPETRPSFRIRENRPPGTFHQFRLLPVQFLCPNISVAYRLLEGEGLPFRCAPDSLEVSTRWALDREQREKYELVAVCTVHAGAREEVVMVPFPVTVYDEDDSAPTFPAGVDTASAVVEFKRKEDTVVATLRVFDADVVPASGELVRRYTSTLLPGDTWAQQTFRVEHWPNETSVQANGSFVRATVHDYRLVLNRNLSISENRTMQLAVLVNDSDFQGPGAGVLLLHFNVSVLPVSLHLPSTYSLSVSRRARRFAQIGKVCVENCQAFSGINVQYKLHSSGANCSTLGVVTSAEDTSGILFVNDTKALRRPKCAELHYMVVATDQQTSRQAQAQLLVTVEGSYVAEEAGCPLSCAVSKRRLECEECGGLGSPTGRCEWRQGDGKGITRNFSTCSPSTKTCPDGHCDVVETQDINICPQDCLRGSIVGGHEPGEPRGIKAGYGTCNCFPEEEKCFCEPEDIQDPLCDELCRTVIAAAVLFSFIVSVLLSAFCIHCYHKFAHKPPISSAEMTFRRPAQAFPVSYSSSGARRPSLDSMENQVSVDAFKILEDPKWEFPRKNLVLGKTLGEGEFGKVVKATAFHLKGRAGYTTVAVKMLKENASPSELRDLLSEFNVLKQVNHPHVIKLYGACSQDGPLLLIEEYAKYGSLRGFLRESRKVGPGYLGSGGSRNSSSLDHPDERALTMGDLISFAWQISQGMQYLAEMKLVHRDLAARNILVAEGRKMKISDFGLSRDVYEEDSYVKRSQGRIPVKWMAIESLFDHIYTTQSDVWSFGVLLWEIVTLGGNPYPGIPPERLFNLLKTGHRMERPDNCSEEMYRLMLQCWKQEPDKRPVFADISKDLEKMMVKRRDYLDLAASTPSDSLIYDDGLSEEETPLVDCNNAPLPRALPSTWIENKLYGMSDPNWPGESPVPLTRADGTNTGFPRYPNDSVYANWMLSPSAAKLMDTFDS
How it was run: as §1

[7] = molecular target: T7, AURKB (Aurora B) (Homo sapiens, UniProt Q96GD4)
T7 construct: purchased Thermo Fisher Scientific
T7 sequence (Q96GD4 whole entry): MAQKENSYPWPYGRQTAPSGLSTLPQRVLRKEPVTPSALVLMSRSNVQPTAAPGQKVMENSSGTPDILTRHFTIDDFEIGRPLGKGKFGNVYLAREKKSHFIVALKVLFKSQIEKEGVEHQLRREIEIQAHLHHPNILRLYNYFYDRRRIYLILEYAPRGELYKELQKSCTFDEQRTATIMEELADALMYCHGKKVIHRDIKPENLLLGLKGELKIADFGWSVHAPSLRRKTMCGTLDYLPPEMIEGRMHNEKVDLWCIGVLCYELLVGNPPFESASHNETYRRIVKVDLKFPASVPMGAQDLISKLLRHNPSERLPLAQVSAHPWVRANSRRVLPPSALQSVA
How it was run: as §1

[8] = molecular target: T8, SGK2 (Homo sapiens, UniProt Q9HBY8)
T8 construct: purchased Thermo Fisher Scientific
T8 sequence (Q9HBY8 1-367): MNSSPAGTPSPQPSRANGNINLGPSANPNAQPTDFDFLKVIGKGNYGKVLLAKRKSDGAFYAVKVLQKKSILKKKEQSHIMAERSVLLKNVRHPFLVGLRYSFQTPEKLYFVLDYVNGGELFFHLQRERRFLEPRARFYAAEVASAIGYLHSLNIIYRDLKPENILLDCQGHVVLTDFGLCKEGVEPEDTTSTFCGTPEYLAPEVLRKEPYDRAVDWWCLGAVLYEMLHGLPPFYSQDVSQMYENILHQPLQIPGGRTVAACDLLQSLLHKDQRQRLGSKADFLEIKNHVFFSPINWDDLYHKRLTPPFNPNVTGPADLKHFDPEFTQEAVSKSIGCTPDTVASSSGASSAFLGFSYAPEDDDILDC
How it was run: as §1

COc1ccc2c(c1OC)c(=O)n1c3ccc(O)cc3c3ccnc2c31 [MW01, 5-Hydroxy-10,11-dimethoxy-9H-benzo[c]indolo[3,2,1-ij][1,5]naphthyridin-9-one]
inhibition at 1 µM [1]: 15%
inhibition at 10 µM [1]: 29%
inhibition at 1 µM [2]: 0%
inhibition at 10 µM [2]: 5%
inhibition at 1 µM [3]: 83%
inhibition at 10 µM [3]: 86%
inhibition at 1 µM [4]: 6%
inhibition at 10 µM [4]: 16%
inhibition at 1 µM [5]: 5%
inhibition at 10 µM [5]: 11%
inhibition at 1 µM [6]: 5%
inhibition at 10 µM [6]: 17%
inhibition at 1 µM [7]: 15%
inhibition at 10 µM [7]: 19%
inhibition at 1 µM [8]: 6%
inhibition at 10 µM [8]: 14%

COc1ccc2cc3c(N)nn(C(=O)c4cccc(N(C)C)c4)c3nc2c1 [MW05, (3-Amino-7-methoxypyrazolo[3,4-b]quinolin-1-yl)-[3-(dimethylamino)phenyl]methanone]
inhibition at 1 µM [1]: 1%
inhibition at 10 µM [1]: -28%
inhibition at 1 µM [2]: 2%
inhibition at 10 µM [2]: -3%
inhibition at 1 µM [3]: -2%
inhibition at 10 µM [3]: 3%
inhibition at 1 µM [4]: 8%
inhibition at 10 µM [4]: -3%
inhibition at 1 µM [5]: -30%
inhibition at 10 µM [5]: -9%
inhibition at 1 µM [6]: 1%
inhibition at 10 µM [6]: -7%
inhibition at 1 µM [7]: 8%
inhibition at 10 µM [7]: -6%
inhibition at 1 µM [8]: -3%
inhibition at 10 µM [8]: -11%
